Laboratory results reported in ChEMBL document CHEMBL1201862, “PubChem BioAssay data set” (2004).
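Values below derive from 48-hour exposures of cells grown in 96-well plates, with endpoints linearly interpolated between the two concentrations bracketing the appropriate inhibition level. Here, GI50 denotes the concentration required for 50% inhibition of growth.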 Calls of active or inactive are those of the source. Rule as the data show it: active = GI50 up to about 1.1 µM and inactive = higher.

What was measured:
Test in all cases: DTP human tumour cell line panel, 48 h
A498 = system: A498
BT-549 = system: BT-549
HL-60 = system: HL-60
HOP-92 = system: HOP-92
HT-29 = system: HT-29
IGROV-1 = system: IGROV-1
KM12 = system: KM12
LOX IMVI = system: LOX IMVI
M14 = system: M14
MDA-MB-435 = system: MDA-MB-435
MDA-N = system: MDA-N
NCI-H226 = system: NCI-H226
NCI-H460 = system: NCI-H460
SF-268 = system: SF-268
SF-539 = system: SF-539
SK-MEL-28 = system: SK-MEL-28
SN12C = system: SN12C
U-251 = system: U-251
UACC-62 = system: UACC-62

Measured: GI50

CCOc1ccc(NC(=O)C(=O)C2C(=O)Nc3ccccc3[S+]2[O-])cc1 (configuration not stated)
inactive: A498 > 100 µM | BT-549 > 100 µM | HL-60 > 100 µM | HOP-92 > 100 µM | HT-29 > 100 µM | IGROV-1 55.6 µM | KM12 > 100 µM | LOX IMVI > 100 µM | M14 > 100 µM | MDA-MB-435 > 100 µM | MDA-N > 100 µM | NCI-H226 > 100 µM | NCI-H460 > 100 µM | SF-268 > 100 µM | SF-539 > 100 µM | SK-MEL-28 > 100 µM | SN12C > 100 µM | U-251 > 100 µM | UACC-62 > 100 µM

N#CC(O)CCOCc1ccccc1 (configuration not stated)
inactive: A498 > 100 µM | BT-549 > 100 µM | HL-60 34.4 µM | HOP-92 65.2 µM | HT-29 38.6 µM | IGROV-1 > 100 µM | KM12 > 100 µM | LOX IMVI 46.9 µM | M14 > 100 µM | MDA-MB-435 > 100 µM | MDA-N 86.7 µM | NCI-H226 > 100 µM | NCI-H460 > 100 µM | SF-268 5.56 µM | SF-539 85.3 µM | SK-MEL-28 > 100 µM | SN12C > 100 µM | U-251 > 100 µM | UACC-62 > 100 µM

Cn1c(=O)c2c(nc(C(=N)SCC(=O)O)n2C)n(C)c1=O
inactive: A498 26.9 µM | BT-549 41.1 µM | HL-60 27.7 µM | HOP-92 36.6 µM | HT-29 48.2 µM | IGROV-1 47 µM | KM12 34.5 µM | LOX IMVI 48.1 µM | M14 43.5 µM | MDA-MB-435 29.2 µM | MDA-N 36.2 µM | NCI-H226 58.9 µM | NCI-H460 29.6 µM | SF-268 39.3 µM | SF-539 32.8 µM | SK-MEL-28 37.7 µM | SN12C 45.9 µM | U-251 95.9 µM | UACC-62 34.4 µM

O=C1NC(NNc2ccccc2)=N/C1=C\c1ccccc1O
inactive: A498 45.9 µM | BT-549 21 µM | HL-60 28.8 µM | HOP-92 55 µM | HT-29 61 µM | IGROV-1 89.1 µM | KM12 33.2 µM | LOX IMVI > 100 µM | M14 97.1 µM | MDA-MB-435 71.1 µM | MDA-N 71.3 µM | NCI-H226 86.1 µM | NCI-H460 45.6 µM | SF-268 > 100 µM | SF-539 77.6 µM | SK-MEL-28 > 100 µM | SN12C 73.6 µM | U-251 70.5 µM | UACC-62 53.3 µM

N#Cc1ccc(-c2nc3c(N)nc(-c4ccccc4)nc3o2)cc1
inactive: A498 > 100 µM | BT-549 > 100 µM | HL-60 > 100 µM | HOP-92 31.5 µM | HT-29 > 100 µM | IGROV-1 > 100 µM | KM12 > 100 µM | LOX IMVI > 100 µM | M14 > 100 µM | MDA-MB-435 > 100 µM | MDA-N > 100 µM | NCI-H226 > 100 µM | NCI-H460 > 100 µM | SF-268 > 100 µM | SF-539 5.6 µM | SK-MEL-28 > 100 µM | SN12C > 100 µM | U-251 5.11 µM | UACC-62 > 100 µM

C=C(Cl)C(=C)CCC(Cl)C(C)C (configuration not stated)
inactive: A498 > 100 µM | BT-549 > 100 µM | HL-60 > 100 µM | HOP-92 > 100 µM | HT-29 > 100 µM | IGROV-1 > 100 µM | KM12 > 100 µM | LOX IMVI > 100 µM | M14 > 100 µM | MDA-MB-435 > 100 µM | MDA-N > 100 µM | NCI-H226 > 100 µM | NCI-H460 > 100 µM | SF-268 > 100 µM | SF-539 > 100 µM | SK-MEL-28 > 100 µM | SN12C > 100 µM | U-251 > 100 µM | UACC-62 > 100 µM

C#CCOC(=O)C(=[N+]=[N-])C(=O)CC(C)C
inactive: A498 > 10 µM | BT-549 > 10 µM | HL-60 > 10 µM | HOP-92 > 10 µM | HT-29 > 10 µM | IGROV-1 > 10 µM | KM12 > 10 µM | LOX IMVI > 10 µM | M14 > 10 µM | MDA-MB-435 > 10 µM | MDA-N > 10 µM | NCI-H226 > 10 µM | NCI-H460 > 10 µM | SF-268 > 10 µM | SF-539 > 10 µM | SK-MEL-28 > 10 µM | SN12C > 10 µM | U-251 > 10 µM | UACC-62 > 10 µM

Nc1c(C(=O)c2ccc(Cl)cc2)[nH]c(Nc2ccc(Cl)cc2)c1C(=S)Nc1ccccc1
inactive: A498 12.7 µM | BT-549 2.93 µM | HL-60 49.5 µM | HOP-92 5.21 µM | HT-29 4.99 µM | IGROV-1 4.15 µM | KM12 7.6 µM | LOX IMVI 3.64 µM | M14 11.9 µM | MDA-MB-435 7.14 µM | MDA-N 6.76 µM | NCI-H226 3.64 µM | NCI-H460 6.58 µM | SF-268 4.22 µM | SF-539 5.41 µM | SK-MEL-28 4.27 µM | SN12C 7.71 µM | U-251 2.97 µM | UACC-62 13.4 µM
